Here are results for six compounds from patent publication US4233403A, “Amylase assay” (E. I. Du Pont de Nemours and Company, priority 1978, dated 1980).

One test relates to α-glucosidase. The test is described as follows: blank rate: release of 4-nitrophenol from the substrate by the maltase without amylase. The class given is biochemical. From the text:
When a maltase, such as α-glucosidase is used, a side reaction which gives rise to a blank rate occurs because of the reactivity of the maltase with the substrate. This means that even in the absence of α-amylase, there will be release of the phenol. Since the maximum velocity of product release from maltase decreases with increasing n, the growth of a blank rate is slower as n increases. One would expect, then, that the blank rate for G5 would be less than that for G4. This is verified by experimentation. However, an additional factor is involved in the choice between higher and lower oligosaccharides (i.e., G4 or G5) as the substrate. In all reactions of the substrate with amylase and reactions of maltase with the substrate, the rate increases, as a function of substrate concentration, to an optimum, at which point it levels off. The substrate concentration at which optimization occurs appears to increase with increasing n so that more of the substrate (and the maltase) must be used to optimize (linearize) the standard curve. For expensive chemicals, this is an important consideration.
A sample of α-(4-nitrophenyl) maltotetraoside (G4 pNp) prepared in accordance with Example 1H of U.S. Patent Application Ser. No. 704,975, filed on the same day as this application, was dissolved in 66.7 mM sodium phosphate buffer, pH 6.5, to provide various substrate concentrations ranging from 2 to 8 mg/3 ml. […]
After the blank rate was measured at 410 nm, using a Gilford spectrophotometer, the reaction was initiated by adding 0.1 ml of an Elevated Enzyme Control Product sold by the E. I. du Pont de Nemours and Company (1150 Somogyi Units per deciliter (SU/dl) amylase) diluted 1:1 with Du Pont Enzyme Diluent. […] The total reaction rate was then measured using the Gilford spectrophotometer, and by subtracting the blank rate from the total rate, the net reaction rate was obtained. […]
After the blank rate was measured, as described in Example 1 above, the reaction was […] by adding 0.1 ml of Du Pont Elevated Enzyme Control Product, diluted 1:1 with Du Pont Enzyme Diluent. The reaction rates for various amylase sample concentrations were measured as discussed in Example 1 above, and a standard curve was generated. From this curve, the sensitivity in mA/min/SU/dl was measured. […]
After the blank rate was measured in a Gilford spectrophotometer at 410 nm, the reaction was initiated by adding 0.1 ml of the Du Pont Elevated Enzyme Control Product, diluted 1:1 with Du Pont Enzyme Diluent. The reaction rates for the various amylase sample concentrations were measured, using the Gilford spectrophotometer, and a standard curve was generated. From this curve, the sensitivity in mA/min/SU/dl was measured. […]

The subject of test [1] is α-amylase. The test is described as follows: amylase assay with nitrophenyl oligosaccharide substrate plus α-glucosidase, rate at 410 nm, standard curve. The format is biochemical. Conditions: for Sensitivity: 4 mg/3 ml G4 pNp, 7.5 IU/3 ml α-glucosidase, pH 6.5, 37° C., 410 nm, from standard curve. As for the experimental part: A sample of α-(4-nitrophenyl) maltotetraoside (G4 pNp) prepared in accordance with Example 1H of U.S. Patent Application Ser. No. 704,975, filed on the same day as this application, was dissolved in 66.7 mM sodium phosphate buffer, pH 6.5, to provide various substrate concentrations ranging from 2 to 8 mg/3 ml. As described in U.S. Ser. No. 704,975, this substrate sample has been purified using a Sephadex® LH-20 Chromatographic Column. α-Glucosidase of various concentrations ranging from 2.5 to 12.5 International Units per three milliliters of solution (IU/3 ml) was then added to the substrate solution and the volume of the solution was brought up to 3.0 ml. The solution was incubated at 37° C. for 1 to 10 minutes.
After the blank rate was measured at 410 nm, using a Gilford spectrophotometer, the reaction was initiated by adding 0.1 ml of an Elevated Enzyme Control Product sold by the E. I. du Pont de Nemours and Company (1150 Somogyi Units per deciliter (SU/dl) amylase) diluted 1:1 with Du Pont Enzyme Diluent. This level of amylase is approximately six times the upper normal serum level. The total reaction rate was then measured using the Gilford spectrophotometer, and by subtracting the blank rate from the total rate, the net reaction rate was obtained.
Using these optimum values of G4 pNp and α-glucosidase in a reaction solution of 3 ml, the reaction rates for various amylase sample concentrations were measured and a standard curve was generated. From this curve, the sensitivity in mA/min/SU/dl was measured. The standard curve for this sample is given in FIG. 1; the blank rate and sensitivity are given for this and other examples in Table II.
The G4 pNp so formed was dissolved in 66.7 mM sodium phosphate buffer, pH 6.5, to provide a substrate concentration of 4 mg/3 ml. Then 7.5 IU/3 ml of α-glucosidase was added to the substrate solution and the volume of the solution was brought up to 3.0 ml. The solution was incubated at 37° C. for one to ten minutes.
After the blank rate was measured, as described in Example 1 above, the reaction was […] by adding 0.1 ml of Du Pont Elevated Enzyme Control Product, diluted 1:1 with Du Pont Enzyme Diluent. The reaction rates for various amylase sample concentrations were measured as discussed in Example 1 above, and a standard curve was generated. From this curve, the sensitivity in mA/min/SU/dl was measured.
A sample of α-(4-nitrophenyl) maltotetraoside, prepared in accordance with Example 1G of U.S. Patent Application Ser. No. 704,975, was dissolved in 66.7 mM sodium phosphate buffer, pH 6.5, to provide a substrate concentration of 4 mg/3 ml. Then 7.5 IU/3 ml of α-glucosidase was added to the substrate solution and the volume of the solution was brought up to 3.0 ml. The solution was incubated at 37° C. for one to ten minutes.
After the blank rate was measured in a Gilford spectrophotometer at 410 nm, the reaction was initiated by adding 0.1 ml of the Du Pont Elevated Enzyme Control Product, diluted 1:1 with Du Pont Enzyme Diluent. The reaction rates for the various amylase sample concentrations were measured, using the Gilford spectrophotometer, and a standard curve was generated. From this curve, the sensitivity in mA/min/SU/dl was measured.
A sample of α-(4-nitrophenyl) maltopentaoside (G5 pNp), prepared in accordance with Example 2E of U.S. Patent Application Ser. No. 704,975, was dissolved in 66.7 mM sodium phosphate buffer, pH 6.5, to provide various substrate concentrations ranging from 4.0 to 12.0 mg/3 ml. α-Glucosidase of various activity ranging from 15 to 45 IU/3 ml was then added to the substrate solution and the volume of the solution was brought up to 3.0 ml. The solution was incubated at 37° C. for one to ten minutes.
Initial tests were conducted using 4.0 mg/3 ml G5 pNp and three α-glucosidase concentrations, 7.0, 14.0, and 28.0 IU/3 ml. […]

Test [2] has as its system α-amylase. The test is described as follows: cleavage of α-(4-nitrophenyl)maltoside by α-amylase. The class given is biochemical, human. As for the experimental part:
A. P. Jansen and P. G. A. B. Wydeveld, Nature, 182, 525 (1958) postulate that α-(p-nitrophenyl)maltoside could be a substrate for an amylase assay. […] They reported: (1) Incubation of samples of human urine, saliva, duodenal contents and only incidentally serum with α-(p-nitrophenyl)maltoside at 37° for 16 hours produces 4-nitrophenol, identified spectrophotometrically by mixing the hydrolyzate with 0.02 N sodium hydroxide. (2) The hydrolysis was inhibited by protein precipitants such as 10% trichloroacetic acid and 0.5 N silver nitrate. […] In contrast to the teaching of Jansen et al., the method of this invention produces amylase analyses in one hour or less.

The mark [3] stands for this setting: 4 mg/3 ml G4 pNp, 7.5 IU/3 ml α-glucosidase, 66.7 mM sodium phosphate pH 6.5, 37° C., 410 nm, no amylase.

Where “and” joins values, the source holds several entries; their conditions need not be identical. Identical values can stand only once.

Consider `O=[N+]([O-])c1ccc(O[C@H]2O[C@H](CO)[C@@H](O[C@H]3O[C@H](CO)[C@@H](O[C@H]4O[C@H](CO)[C@@H](O[C@H]5O[C@H](CO)[C@@H](O)[C@H](O)[C@H]5O)[C@H](O)[C@H]4O)[C@H](O)[C@H]3O)[C@H](O)[C@H]2O)cc1` [Example 1, α-(4-nitrophenyl) maltotetraoside], for which the “Blank Rate” value in the test on α-glucosidase (setting [3]) is recorded as 5.0 mA/min. In the test with α-amylase [1], the Sensitivity is 0.115 mA/min/SU/dl. In the case of `O=[N+]([O-])c1ccc(O[C@H]2O[C@H](CO)[C@@H](O[C@H]3O[C@H](CO)[C@@H](O[C@H]4O[C@H](CO)[C@@H](O[C@H]5O[C@H](CO)[C@@H](O)[C@H](O)[C@H]5O)[C@H](O)[C@H]4O)[C@H](O)[C@H]3O)[C@H](O)[C@H]2O)cc1` [Example 2, α-(4-nitrophenyl) maltotetraoside], the Sensitivity with α-amylase [1] was 0.231 mA/min/SU/dl.

Take `O=[N+]([O-])c1ccc(O[C@H]2O[C@H](CO)[C@@H](O[C@H]3O[C@H](CO)[C@@H](O[C@H]4O[C@H](CO)[C@@H](O[C@H]5O[C@H](CO)[C@@H](O)[C@H](O)[C@H]5O)[C@H](O)[C@H]4O)[C@H](O)[C@H]3O)[C@H](O)[C@H]2O)cc1` [Example 3, α-(4-nitrophenyl) maltotetraoside]: the “Blank Rate” value in the test on α-glucosidase (setting [3]) is 10.3-13.3 mA/min and 10.3 to 13.3 mA/min. In addition, the Sensitivity in the test on α-amylase [1] was 0.110 mA/min/SU/dl. For the same compound, the “increase in sensitivity, end point determination after quenching” value in the test on α-amylase [1] (reaction quenched after five minutes with 0.2 M Na2CO3 or 0.002 N NaOH, versus rate assay at pH 6.5) is recorded as “five to ten fold”. Consider `O=[N+]([O-])c1ccc(O[C@H]2O[C@H](CO)[C@@H](O[C@H]3O[C@H](CO)[C@@H](O[C@H]4O[C@H](CO)[C@@H](O[C@H]5O[C@H](CO)[C@@H](O)[C@H](O)[C@H]5O)[C@H](O)[C@H]4O)[C@H](O)[C@H]3O)[C@H](O)[C@H]2O)cc1` [Example 4, α-(4-nitrophenyl) maltotetraoside], for which the “Blank Rate” value in the test with α-glucosidase (setting [3]) turned out to be 3.0 mA/min. For the same compound, in the test on α-amylase [1], the Sensitivity was found to be 0.116 mA/min/SU/dl. `O=[N+]([O-])c1ccc(O[C@H]2O[C@H](CO)[C@@H](O[C@H]3O[C@H](CO)[C@@H](O[C@H]4O[C@H](CO)[C@@H](O[C@H]5O[C@H](CO)[C@@H](O[C@H]6O[C@H](CO)[C@@H](O)[C@H](O)[C@H]6O)[C@H](O)[C@H]5O)[C@H](O)[C@H]4O)[C@H](O)[C@H]3O)[C@H](O)[C@H]2O)cc1` [G5 pNp, α-(4-nitrophenyl) maltopentaoside]: in the test on α-glucosidase (4.0 mg/3 ml G5 pNp, α-glucosidase 7.0, 14.0 and 28.0 IU/3 ml (each case), pH 6.5, 37° C.), the Blank Rate was found to be 3.0 mA/min. Also, the “Sensitivity (estimated, non-linear curves)” value in the test with α-amylase [1] (4.0 mg/3 ml G5 pNp, α-glucosidase 7.0, 14.0, 28.0 IU/3 ml) was “greater than 0.160 mA/min/IU/dl”. As for `O=[N+]([O-])c1ccc(O[C@H]2O[C@H](CO)[C@@H](O[C@H]3O[C@H](CO)[C@@H](O)[C@H](O)[C@H]3O)[C@H](O)[C@H]2O)cc1` [α-(4-Nitrophenyl)maltoside], in the test with α-amylase [2], the “cleavage of this compound by α-amylase” value was “extremely slow”.
